Experiments:
Assay in all cases: Competitive isoTOP-ABPP in situ (fragment-treated cells)
Type in all cases: cell-based
[1] = target: T1, cysteines in MDA-MB-231 and Ramos cells (Homo sapiens, UniProt A6NDU8)
T1 sequence (A6NDU8 1-294): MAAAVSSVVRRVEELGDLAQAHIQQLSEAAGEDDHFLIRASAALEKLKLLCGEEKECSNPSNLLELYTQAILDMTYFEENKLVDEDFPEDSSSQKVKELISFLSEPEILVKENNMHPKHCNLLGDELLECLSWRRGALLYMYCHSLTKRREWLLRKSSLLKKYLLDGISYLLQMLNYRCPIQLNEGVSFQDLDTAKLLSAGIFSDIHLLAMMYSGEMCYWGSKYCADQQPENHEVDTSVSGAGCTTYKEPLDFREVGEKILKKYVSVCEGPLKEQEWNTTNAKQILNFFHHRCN

[2] = target: T2, cysteines in MDA-MB-231 and Ramos cells (Homo sapiens, UniProt P22307)
T2 sequence (P22307 1-547): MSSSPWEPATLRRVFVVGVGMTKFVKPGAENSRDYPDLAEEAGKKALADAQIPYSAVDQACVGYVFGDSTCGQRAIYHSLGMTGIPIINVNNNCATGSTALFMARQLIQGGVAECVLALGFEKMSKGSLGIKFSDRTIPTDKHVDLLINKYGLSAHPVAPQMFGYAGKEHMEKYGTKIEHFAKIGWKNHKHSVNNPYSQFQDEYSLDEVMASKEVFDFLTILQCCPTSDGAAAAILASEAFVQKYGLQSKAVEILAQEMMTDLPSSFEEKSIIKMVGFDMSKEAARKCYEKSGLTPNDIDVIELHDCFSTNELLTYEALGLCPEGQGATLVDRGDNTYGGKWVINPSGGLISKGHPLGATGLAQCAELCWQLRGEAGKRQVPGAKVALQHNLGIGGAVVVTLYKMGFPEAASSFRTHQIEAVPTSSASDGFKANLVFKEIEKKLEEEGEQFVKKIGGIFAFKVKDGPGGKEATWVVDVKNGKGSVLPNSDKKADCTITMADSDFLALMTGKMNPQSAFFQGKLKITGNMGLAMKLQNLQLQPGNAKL

[3] = target: T3, cysteines in MDA-MB-231 and Ramos cells (Homo sapiens, UniProt P25205)
T3 sequence (P25205 1-808): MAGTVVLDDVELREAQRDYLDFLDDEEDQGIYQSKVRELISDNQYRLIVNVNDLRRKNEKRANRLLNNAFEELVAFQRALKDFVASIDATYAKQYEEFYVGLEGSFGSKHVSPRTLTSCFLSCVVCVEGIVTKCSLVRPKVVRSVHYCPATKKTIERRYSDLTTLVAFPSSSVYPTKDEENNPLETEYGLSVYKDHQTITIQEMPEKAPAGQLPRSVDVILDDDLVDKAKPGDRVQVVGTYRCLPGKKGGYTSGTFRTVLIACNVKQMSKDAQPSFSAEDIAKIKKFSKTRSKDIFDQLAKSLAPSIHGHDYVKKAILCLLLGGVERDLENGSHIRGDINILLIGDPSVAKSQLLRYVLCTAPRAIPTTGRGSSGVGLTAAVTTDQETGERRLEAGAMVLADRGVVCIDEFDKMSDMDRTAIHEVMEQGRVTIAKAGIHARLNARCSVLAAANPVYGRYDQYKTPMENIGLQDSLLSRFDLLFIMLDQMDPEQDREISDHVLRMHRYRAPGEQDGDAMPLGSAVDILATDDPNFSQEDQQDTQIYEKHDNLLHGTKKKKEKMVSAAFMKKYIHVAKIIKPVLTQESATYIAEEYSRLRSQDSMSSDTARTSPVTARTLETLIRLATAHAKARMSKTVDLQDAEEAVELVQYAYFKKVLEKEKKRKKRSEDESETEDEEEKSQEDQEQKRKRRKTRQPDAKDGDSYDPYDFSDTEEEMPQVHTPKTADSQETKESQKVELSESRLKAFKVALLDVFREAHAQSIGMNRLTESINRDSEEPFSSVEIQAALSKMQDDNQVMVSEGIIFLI

[4] = target: T4, cysteines in MDA-MB-231 and Ramos cells (Homo sapiens, UniProt Q9NRG0)
T4 sequence (Q9NRG0 1-131): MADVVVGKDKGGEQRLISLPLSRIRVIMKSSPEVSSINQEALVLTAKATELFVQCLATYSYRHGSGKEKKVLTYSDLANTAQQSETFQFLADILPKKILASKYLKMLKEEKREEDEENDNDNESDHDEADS

[5] = target: cysteines in MDA-MB-231 and Ramos cells (Homo sapiens, UniProt Q9ULV4)
[6] = target: T5, cysteines in MDA-MB-231 and Ramos cells (Homo sapiens, UniProt Q9Y277)
T5 sequence (Q9Y277 1-283): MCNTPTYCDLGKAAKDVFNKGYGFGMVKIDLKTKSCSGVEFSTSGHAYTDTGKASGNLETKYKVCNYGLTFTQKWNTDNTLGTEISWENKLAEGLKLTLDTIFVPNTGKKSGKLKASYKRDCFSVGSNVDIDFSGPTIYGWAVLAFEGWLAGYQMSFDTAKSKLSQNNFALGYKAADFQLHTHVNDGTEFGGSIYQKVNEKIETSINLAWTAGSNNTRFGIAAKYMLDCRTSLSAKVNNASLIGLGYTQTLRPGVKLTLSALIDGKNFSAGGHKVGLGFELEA

[7] = target: T6, cysteines in MDA-MB-231 and Ramos cells (Homo sapiens, UniProt P78417); conditions: 200 μM, insitu
T6 sequence (P78417 1-241): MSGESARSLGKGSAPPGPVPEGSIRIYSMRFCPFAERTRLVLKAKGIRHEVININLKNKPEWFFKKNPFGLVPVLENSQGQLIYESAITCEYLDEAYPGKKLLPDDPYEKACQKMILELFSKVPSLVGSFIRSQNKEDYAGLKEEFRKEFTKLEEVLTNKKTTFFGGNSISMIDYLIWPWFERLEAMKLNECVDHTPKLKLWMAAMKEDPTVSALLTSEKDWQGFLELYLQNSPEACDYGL

[8] = target: T7, cysteines in MDA-MB-231 and Ramos cells (Homo sapiens, UniProt Q9Y3A3)
T7 sequence (Q9Y3A3 1-225): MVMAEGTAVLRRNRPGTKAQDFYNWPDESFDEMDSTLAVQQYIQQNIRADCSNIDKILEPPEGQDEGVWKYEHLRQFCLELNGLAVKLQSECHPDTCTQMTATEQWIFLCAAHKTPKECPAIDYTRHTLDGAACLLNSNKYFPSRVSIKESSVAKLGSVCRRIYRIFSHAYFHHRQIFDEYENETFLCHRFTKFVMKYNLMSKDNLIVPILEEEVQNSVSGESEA

Chain of cysteines in MDA-MB-231 and Ramos cells (Homo sapiens, UniProt Q9ULV4) (Q9ULV4 whole entry): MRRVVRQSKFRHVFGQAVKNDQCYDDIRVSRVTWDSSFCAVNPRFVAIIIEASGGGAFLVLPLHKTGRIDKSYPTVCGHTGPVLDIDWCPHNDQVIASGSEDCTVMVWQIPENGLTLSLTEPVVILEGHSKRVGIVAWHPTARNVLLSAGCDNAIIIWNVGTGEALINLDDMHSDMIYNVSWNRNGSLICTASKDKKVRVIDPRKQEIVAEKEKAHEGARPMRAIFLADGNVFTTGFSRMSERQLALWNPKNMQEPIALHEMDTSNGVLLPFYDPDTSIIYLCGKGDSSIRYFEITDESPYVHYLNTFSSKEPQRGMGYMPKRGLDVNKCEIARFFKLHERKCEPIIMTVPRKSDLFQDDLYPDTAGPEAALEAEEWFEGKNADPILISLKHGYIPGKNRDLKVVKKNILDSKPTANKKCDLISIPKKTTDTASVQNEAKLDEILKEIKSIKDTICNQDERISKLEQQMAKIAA

Row | isoTOP-ABPP ratio P22307_C71 ([2]; 200 μM, insitu, 231) | isoTOP-ABPP ratio P25205_C119 ([3]; 200 μM, insitu, 231) | isoTOP-ABPP ratio P78417_C32 [7]; 231 | isoTOP-ABPP ratio Q9NRG0_C55 ([4]; 200 μM, insitu, 231) | isoTOP-ABPP ratio Q9ULV4_C420 ([5]; 200 μM, insitu, 231) | isoTOP-ABPP ratio Q9Y277_C65 ([6]; 200 μM, insitu, 231) | isoTOP-ABPP ratio Q9Y3A3_C134 ([8]; 200 μM, insitu, 231) | isoTOP-ABPP ratio A6NDU8_C179 ([1]; 200 μM, insitu, 231) | also measured | SMILES
1 | – | – | – | – | – | – | – | – | isoTOP-ABPP reactivity A6NDU8_C179 C5orf51 ([1]; 200 μM, insitu, 231): 4.2; isoTOP-ABPP reactivity P22307_C71 SCP2 ([2]; 200 μM, insitu, 231): 3.2; isoTOP-ABPP reactivity P22307_C307 SCP2 ([2]; 200 μM, insitu, 231): 20.0; isoTOP-ABPP reactivity P25205_C119 MCM3 ([3]; 200 μM, insitu, 231): 3.5; isoTOP-ABPP reactivity Q9NRG0_C55 CHRAC1 ([4]; 200 μM, insitu, 231): 20.0; isoTOP-ABPP reactivity Q9ULV4_C420 CORO1C ([5]; 200 μM, insitu, 231): 3.0; isoTOP-ABPP reactivity Q9Y277_C65 VDAC3 ([6]; 200 μM, insitu, 231): 3.3 | COc1ccc2c(c1)CCCN2C(=O)CCl [compound 2]
2 | – | – | – | – | – | – | – | – | isoTOP-ABPP reactivity P22307_C71 SCP2 ([2]; 200 μM, insitu, 231): 20.0; isoTOP-ABPP reactivity P22307_C307 SCP2 ([2]; 200 μM, insitu, 231): 20.0; isoTOP-ABPP reactivity P25205_C119 MCM3 ([3]; 200 μM, insitu, 231): 3.5; isoTOP-ABPP reactivity P78417_C32 GSTO1 [7]; 231: 20.0; isoTOP-ABPP reactivity Q9NRG0_C55 CHRAC1 ([4]; 200 μM, insitu, 231): 7.4; isoTOP-ABPP reactivity Q9ULV4_C420 CORO1C ([5]; 200 μM, insitu, 231): 4.6; isoTOP-ABPP reactivity Q9Y3A3_C134 MOB4 ([8]; 200 μM, insitu, 231): 1.6 | COc1cc2c(cc1OC)CN(C(=O)CCl)CC2 [compound 8]
3 | – | – | – | – | – | – | – | – | isoTOP-ABPP reactivity A6NDU8_C179 C5orf51 ([1]; 200 μM, insitu, 231): 20.0; isoTOP-ABPP reactivity P25205_C119 MCM3 ([3]; 200 μM, insitu, 231): 1.9; isoTOP-ABPP reactivity Q9NRG0_C55 CHRAC1 ([4]; 200 μM, insitu, 231): 2.9; isoTOP-ABPP reactivity Q9ULV4_C420 CORO1C ([5]; 200 μM, insitu, 231): 2.0; isoTOP-ABPP reactivity Q9Y3A3_C134 MOB4 ([8]; 200 μM, insitu, 231): 20.0 | O=C(CCl)N1CCC(Cc2ccccc2)CC1 [compound 9]
4 | – | – | – | – | – | – | – | – | isoTOP-ABPP ratio A6NDU8_C179 ([1]; 100 μM in situ 231): 0.7; isoTOP-ABPP ratio P22307_C71 ([2]; 100 μM in situ 231): 2.0; isoTOP-ABPP ratio, cysteine P22307_C94 ([2]; 100 μM in situ 231): 3.3; isoTOP-ABPP ratio, cysteine P22307_C307 ([2]; 100 μM in situ 231): 2.9; isoTOP-ABPP ratio P25205_C119 ([3]; 100 μM in situ 231): 0.7; isoTOP-ABPP ratio Q9NRG0_C55 ([4]; 100 μM in situ 231): 1.1; isoTOP-ABPP ratio Q9ULV4_C420 ([5]; 100 μM in situ 231): 0.9; isoTOP-ABPP ratio Q9Y277_C65 ([6]; 100 μM in situ 231): 1.4; isoTOP-ABPP ratio Q9Y3A3_C134 ([8]; 100 μM in situ 231): 1.8 | Cn1cc(S(=O)(=O)N2CCOCC2)cc1C(=O)NC(=O)CCl [compound 11]
5 | 3.7 | 1.0 | 20.0 | 20.0 | 2.2 | 3.9 | 1.4 | – | isoTOP-ABPP ratio, cysteine P22307_C94 ([2]; 200 μM, insitu, 231): 20.0; isoTOP-ABPP ratio, cysteine P22307_C307 ([2]; 200 μM, insitu, 231): 20.0 | O=C(CCl)NC(=O)NC12CC3CC(CC(C3)C1)C2 [compound 12]
6 | 8.3 | 1.1 | – | – | 1.3 | 2.9 | – | 0.9 | isoTOP-ABPP ratio, cysteine P22307_C307 ([2]; 200 μM, insitu, 231): 20.0 | O=C(CCl)NC12CC3CC(CC(C3)C1)C2 [compound 21]
7 | 20.0 | 1.0 | 20.0 | 0.9 | 0.8 | 1.6 | – | 0.7 | – | CC(C)CCOCCNC(=O)CCl [compound 27]
8 | – | – | 20.0 | – | 0.7 | 1.2 | – | 0.8 | isoTOP-ABPP ratio P22307_C94 ([2]; 200 μM, insitu, 231): 20.0 | COc1ccccc1OCCNC(=O)CCl [compound 28]
9 | – | – | – | – | – | – | – | – | isoTOP-ABPP ratio A6NDU8_C179 ([1]; 200 μM, insitu, ramos): 1.0; isoTOP-ABPP ratio P25205_C119 ([3]; 200 μM, insitu, ramos): 1.3; isoTOP-ABPP ratio P78417_C32 ([7]; ramos): 20.0; isoTOP-ABPP ratio Q9NRG0_C55 ([4]; 200 μM, insitu, ramos): 1.5; isoTOP-ABPP ratio Q9Y3A3_C134 ([8]; 200 μM, insitu, ramos): 1.2 | O=C(CCl)N1CCN(CC(=O)N2CCOCC2)CC1 [compound 29]
10 | – | 0.5 | 0.8 | – | 0.8 | – | 1.0 | – | isoTOP-ABPP ratio P78417_C32 ([7]; ramos): 2.6; isoTOP-ABPP ratio Q9NRG0_C55 ([4]; 200 μM, insitu, ramos): 1.6; isoTOP-ABPP ratio Q9ULV4_C420 ([5]; 200 μM, insitu, ramos): 1.1; isoTOP-ABPP ratio Q9Y277_C65 ([6]; 200 μM, insitu, ramos): 1.0; isoTOP-ABPP ratio Q9Y3A3_C134 ([8]; 200 μM, insitu, ramos): 1.8 | C=CC(=O)N(Cc1cccnc1)c1cc(C(F)(F)F)cc(C(F)(F)F)c1 [compound 31]
11 | – | 0.9 | 1.0 | 1.0 | 1.4 | 20.0 | 1.0 | 1.4 | – | C=CC(=O)Nc1cc(F)c(N2CCN(C(=O)OC(C)(C)C)CC2)c(F)c1 [compound 38]
12 | 16.8 | 6.2 | 1.9 | 20.0 | 3.2 | – | 2.3 | 20.0 | isoTOP-ABPP ratio P22307_C94 ([2]; 200 μM, insitu, 231): 20.0 | CC1CCc2ccccc2N1C(=O)CCl (stereo not shown) [compound 45]
13 | 5.6 | 2.6 | – | 1.1 | 1.1 | – | – | – | – | O=C(CCl)Nc1cccc2ncccc12 [compound 51]

From patent US10670605B2, “Cysteine reactive probes and uses thereof” (The Scripps Research Institute, priority 2015, dated 2020)
